According to BindingDB's records for doi:10.1021/jm050792d (University of Naples Federico II, 2005):

Legend:
Adenosine receptor A2a = Adenosine receptor A2a (Homo sapiens, UniProt P29274); test: Displacement of [3H]NECA from human adenosine A2A receptor expressed in CHO cells
Adenosine receptor A1 = biological target: T1, Adenosine receptor A1 (Homo sapiens, UniProt P30542); test: Displacement of [3H]DPCPX from human adenosine A1 receptor expressed in CHO cells
T1 sequence (P30542 whole entry): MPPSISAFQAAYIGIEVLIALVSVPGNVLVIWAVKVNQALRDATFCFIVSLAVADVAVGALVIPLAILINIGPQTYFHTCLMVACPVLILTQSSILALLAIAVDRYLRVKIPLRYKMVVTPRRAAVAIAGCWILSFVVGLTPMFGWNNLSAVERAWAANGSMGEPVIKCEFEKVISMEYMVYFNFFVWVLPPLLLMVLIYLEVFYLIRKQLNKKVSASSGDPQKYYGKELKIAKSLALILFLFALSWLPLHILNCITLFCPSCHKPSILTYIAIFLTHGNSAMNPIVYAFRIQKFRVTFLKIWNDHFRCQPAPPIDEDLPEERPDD

Chain of Adenosine receptor A2a (P29274 whole entry): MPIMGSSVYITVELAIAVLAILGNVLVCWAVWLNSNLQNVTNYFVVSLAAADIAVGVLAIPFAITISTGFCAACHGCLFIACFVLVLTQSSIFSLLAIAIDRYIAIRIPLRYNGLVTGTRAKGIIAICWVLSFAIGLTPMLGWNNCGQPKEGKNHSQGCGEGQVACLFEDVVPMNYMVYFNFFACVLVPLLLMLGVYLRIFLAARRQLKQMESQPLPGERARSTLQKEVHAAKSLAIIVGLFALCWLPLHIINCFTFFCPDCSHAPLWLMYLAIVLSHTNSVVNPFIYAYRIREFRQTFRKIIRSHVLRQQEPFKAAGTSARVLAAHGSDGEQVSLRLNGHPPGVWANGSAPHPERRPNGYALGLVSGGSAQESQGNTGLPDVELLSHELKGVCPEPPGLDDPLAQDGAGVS

Ki (Adenosine receptor A2a) [µM] | Ki (Adenosine receptor A1) [µM] | Structure (SMILES)
> 10 | > 10 | O=c1c2[nH]nnc2nc2n1CCCS2 [7,8-Dihydro-3H,6H-5-thia-1,2,3,4,8a-pentaaza-cyclopenta[b]naphthalen-9-one]
> 10 | > 10 | CC1CSc2nc3nn[nH]c3c(=O)n21 (centres undefined) [7-methyl-6,7-dihydro[1,3]thiazolo[3,2-a][1,2,3]triazolo[4,5-d]pyrimidin-9(3H)-one]
